Measured values as given in patent publication US20090247542A1, “SYNTHESES AND PREPARATIONS OF POLYMORPHS OF CRYSTALLINE ARIPIPRAZOLE” (MEDICHEM, S.A., priority 2005, published 2009).

Experiment: Hygroscopicity measurements (water content by Karl Fisher after humid storage)
Type: physicochemical
Settings: for Hygroscopicity: water content (Karl Fisher) after 24 hours at 60° C./100% RH, then 24 hours at room temperature and about 30% RH
Procedure: vii. Hygroscopicity Measurements
One gram of the sample was accurately weighed in a weighing bottle (diameter 5 cm), covered with kimwipes and left to rest in 60° C./100% RH environment (water/dessicator). 24 hours later, the weighing bottle was removed, transferred to an environment of room temperature and about 30% RH (magnesium chloride hexahydrate saturated water solution/dessicator) and left to rest for 24 hours and the water content of the sample was measured by the Karl Fisher method.

Row | SMILES | Hygroscopicity | low hygroscopicity (moisture content) (after storing anhydrous aripiprazole Form J for 24 hours at 60° C. and a humidity level of 100%)
1 | O=C1CCc2ccc(OCCCCN3CCN(c4cccc(Cl)c4Cl)CC3)cc2N1 [Example 1, 7-{4-[4-(2,3-dichlorophenyl)-1-piperazinyl]-butoxy}-3,4-dihydrocarbostyril] | 0.06% | 
2 | O=C1CCc2ccc(OCCCCN3CCN(c4cccc(Cl)c4Cl)CC3)cc2N1 [Reference Example 2, 7-{4-[4-(2,3-dichlorophenyl)-1-piperazinyl]-butoxy}-3,4-dihydrocarbostyril, reference compound] | 0.35% | 
3 | O=C1CCc2ccc(OCCCCN3CCN(c4cccc(Cl)c4Cl)CC3)cc2N1 [aripiprazole Form J, 7-{4-[4-(2,3-dichlorophenyl)-1-piperazinyl]-butoxy}-3,4-dihydrocarbostyril] |  | ≤ 0.5%
